# In US12396990B2, “Application of 5-hydroxytryptamine receptor 1A in preparing drug for portal hypertension” (SECOND AFFILIATED HOSPITAL, SECOND MILITARY MEDICAL …, priority 2018, dated 2025):
# “Also recorded” adds a separate entry of the source. Marks after values point to notes of the source that are not given here.
# Legend:
# isolated portal veins = experiment: Contractile tension of isolated portal veins; parameters: species or system Male Wistar rats; settings: for Effect of agonist on contractile tension of isolated portal vein: cumulative concentrations, 3 minutes each, agonist alone; for Effect of antagonist on 5-HT induced contraction of isolated portal vein: pre-incubation with antagonist for 20 minutes before 5-HT; for Effect of antagonist on 8-OH-DPAT induced contraction of isolated portal vein: pre-incubation with antagonist for 20 minutes before 8-OH-DPAT; for Effect of antagonist on F11440 induced contraction of isolated portal vein: pre-incubation with antagonist for 20 minutes before F11440
# Text: Effects of the selective agonist and antagonist of HTR1A on contractile tension of isolated portal vein.
# 1) Male Wistar rats, weighting 140 g to 160 g, were anesthetized with inhalational isopentane through a mask. The portal veins were gently isolated from the animals and 3-5 mm of the vessel was removed under the anatomical microscope from the connective tissue, and then the vessel was placed in a cold Tyrode solution (NaCl: 148.9, KCl: 2.7, CaCl2: 1.8, NaPO4H2: 0.2, NaCO3H: 11.9, MgCl2: 1.2, glucose: 5.5 mM). Isolated portal veins were mounted in 20 ml jacketed tissue baths containing the appropriate Tyrode solution (37±0.5° C., PH=7.4) constantly bubbled with O2, by suspending them between two L-shaped stainless-steel hooks. The lower hooks were fixed and the upper hooks were attached to force-displacement transducers. Isometric force was measured and recorded using the ALC-MPA software associated with the equipment.
# 2) A pre-load of 1 g was applied. After mounting, isolated portal veins were equilibrated for […]. The contractile response to depolarizing potassium solution was then assessed as a test for viability. The depolarizing KCl solution (80 mM) had the same composition as the Tyrode solution used, except for the NaCl that had been completely replaced by an equimolar amount of KCl. The iPVs were washed with Tyrode solution four times and re-equilibrated for another […].
# 3) To evaluate the effects of 5-HT or HTR1A agonist on the contraction of iPVs, serotonin or selective agonist of HTR1A (8-OH-DPAT and F11440) was directly administrated into the tissue baths for 3 minutes in cumulatively concentrations, and the magnitude of contractile tension was recorded. To evaluate the effects of HTR1A antagonist, a pre-incubation with selective antagonist of HTR1A (WAY 100635 and NAD 299) for 20 minutes was used before increasing administration of 5-HT or HTR1A agonist.
# 4) 5-HT, selective agonist of HTR1A (8-OH-DPAT and F11440), and selective antagonist of HTR1A (WAY 100635 and NAD 299) were purchased from Sigma, Selleck, Tocris, and TargetMol, respectively.
# [1] = test system: cirrhotic portal hypertensive rats induced by carbon tetrachloride (CCl4); experiment: Portal pressure in cirrhotic portal hypertensive rats induced by CCl4, agonist 8-OH-DPAT (Example 3); type: in vivo, Male Wistar rats; settings: CCl4 model
# Text: (§1) 1) Self-made portal pressure measuring kit, which contains 24-Gauge scalp vein set (Y type) and catheter, and high-sensitive pressure sensor, biological signal processing system (SMUP-U, Jide experimental teaching equipment factory, Shanghai, China) were used to measure the portal pressure in rats.
# (§2) 2) Connect all the catheters and device, check the tightness and set zero, then open the portal pressure measuring kit, connect the catheter with the scalp vein set and high-sensitive pressure sensor, following the connection between pressure sensor and biological signal processing system. Fill all the catheters with heparin sodium saline (volume of heparin sodium and saline: 1.25 WU: 500 ml), eliminate the air bubbles and close the catheter. Then remove the needle in the scalp vein set, place it horizontally at the portal vein height of the rat (supine position). The zero point was set after opening the catheter in the biological collection system software.
# 3) Rats were anesthetized with inhalational isopentane through a mask. A midline abdominal incision was made, and the portal vein was cannulated with a 24-Gauge scalp vein set, connecting with a catheter filled heparin-saline, to measure PP. […]
# 4) After one-week treatment, portal pressure of all the rats were measured and rats were sacrificed for liver tissues. […]
# [2] = test system: cirrhotic portal hypertensive rats induced by carbon tetrachloride (CCl4); experiment: Portal pressure in cirrhotic portal hypertensive rats induced by carbon tetrachloride (CCl4), antagonists (Example 2); type: in vivo, Male Wistar rats; settings: CCl4 model; for Effect on portal pressure / Portal pressure: WAY 100635 1 mg/kg i.p.; for Effect on portal pressure: alverine 15 mg/kg by gavage, once per day; for Portal pressure: alverine 15 mg/kg p.o., means ±SEM; for Portal pressure / Effect on portal pressure compared with carvedilol: carvedilol 10 mg/kg p.o.; for Portal pressure / Change of portal pressure vs. Vehicle: once per day for one week; for Change of portal pressure vs. Vehicle: same dosing
# Text: 1) Self-made portal pressure measuring kit, which contains 24-Gauge scalp vein set (Y type) and catheter, and high-sensitive pressure sensor, biological signal processing system (SMUP-U, Jide experimental teaching equipment factory, Shanghai, China) were used to measure the portal pressure in rats. 2) Connect all the catheters and device, check the tightness and set zero, then open the portal pressure measuring kit, connect the catheter with the scalp vein set and high-sensitive pressure sensor, following the connection between pressure sensor and biological signal processing system. Fill all the catheters with heparin sodium saline (volume of heparin sodium and saline: 1.25 WU: 500 ml), eliminate the air bubbles and close the catheter. Then remove the needle in the scalp vein set, place it horizontally at the portal vein height of the rat (supine position). The zero point was set after opening the catheter in the biological collection system software. 3) Rats were anesthetized with inhalational isopentane through a mask. A midline abdominal incision was made, and the portal vein was cannulated with a 24-Gauge scalp vein set, connecting with a catheter filled heparin-saline, to measure PP. Effects of the selective antagonist of HTR1A WAY 100635, and alverine on portal pressure (PP) in cirrhotic portal hypertensive rats induced by carbon tetrachloride (CCl4). 1) Thirty-one male Wistar rats, weighting 140 g to 160 g, were randomly divided into normal control group (N=7) and CCl4 group (N=24). Rats in CCl4 group were subjected to intraperitoneally (i.p.) injections of CCl4 at 0.25 ml/kg (diluted 1:3 v/v in olive oil) twice per week for 12 weeks to induce cirrhotic portal hypertension, while the normal controls received injections of olive oil at the same timepoint. At the beginning of the eleventh week, rats in CCl4 group were randomly divided into four groups: Vehicle group (N=7), Alverine group (N=6), WAY 100635 group (N=5), and carvedilol group (N=6). 2) Alverine was diluted in sterile normal saline at a concentration of 5 mg/ml and delivered to the rats in Alverine group via gavage (p.o.). WAY 100635 was diluted in sterile normal saline at a concentration of 1 mg/ml and peritoneally injected (i.p.) into the rats in WAY 100635 group. Carvedilol was diluted in sterile normal saline at a concentration of 1 mg/ml and delivered to the rats in carvedilol group via gavage. 3) Rats in the Alverine group, WAY 100635 group, and carvedilol group were received alverine 15 mg/kg p.o.+saline i.p., saline p.o.+WAY 100635 1 mg/kg i.p., carvedilol 10 mg/kg p.o.+saline i.p., respectively once per day for one week, while rats in vehicle group received saline p.o. and saline i.p. at the same timepoint. 4) After one-week treatment, portal pressure of all the rats were measured and rats were sacrificed for liver tissues. Similar as that in embodiment example 1.
# [3] = test system: cirrhotic portal hypertensive rats induced by thioacetamide (TAA); experiment: Portal pressure in cirrhotic portal hypertensive rats induced by thioacetamide (TAA); type: in vivo, Male Wistar rats; settings: TAA model; for Effect on portal pressure / Portal pressure: WAY 100635 1 mg/kg i.p.; for Effect on portal pressure: alverine 15 mg/kg by gavage, once per day; for Portal pressure: alverine 15 mg/kg p.o., means ±SEM; for Portal pressure / Effect on portal pressure compared with carvedilol: carvedilol 10 mg/kg p.o.; for Portal pressure / Change of portal pressure vs. Vehicle: once per day for one week; for Change of portal pressure vs. Vehicle: same dosing
# Description: Effects of the selective antagonist of HTR1A WAY 100635, and alverine on portal pressure (PP) in cirrhotic portal hypertensive rats induced by thioacetamide (TAA).
# Male Wistar rats, weighting about 140 to 160 grams (g) each, were purchased from SLAC Laboratory Animal Co., Ltd (Shanghai, China) and housed under standard animal laboratory conditions in the experimental animal center of Second Military Medical University (Shanghai, China). All animal experiments in this study were performed in accordance with protocols approved by the local Ethical Committee of the Second Military Medical University.
# 1) Thirty-five male Wistar rats, weighting 140 g to 160 g, were randomly divided into normal control group (N=8) and TAA group (N=27). Rats in TAA group were subjected to intraperitoneally (i.p.) injections of TAA (purchase from […]) at 200 mg/kg, which is diluted in sterile normal saline (NS; 0.9% sodium chloride), 3 times per week for 16 weeks to induce cirrhotic portal hypertension. The normal controls received injections of NS at the same timepoint. At the beginning of the 17th week, rats in TAA group were randomly divided into four groups: Vehicle group (N=7), Alverine group (N=7), WAY 100635 group (N=7), and carvedilol group (N=6).
# 2) Alverine (purchase from TargetMol) was diluted in the saline at a concentration of 5 mg/ml and delivered to the rats in Alverine group via gavage (p.o.). WAY 100635 (purchase from Selleck) was diluted in sterile normal saline at a concentration of 1 mg/ml and peritoneally injected (i.p.) into the rats in WAY 100635 group. Carvedilol (purchase from TargetMol) was diluted in sterile normal saline at a concentration of 1 mg/ml and delivered to the rats in carvedilol group via gavage.
# 3) Rats in the Alverine group, WAY 100635 group, and carvedilol group were received alverine 15 mg/kg p.o.+saline i.p., saline p.o.+WAY 100635 1 mg/kg i.p., carvedilol 10 mg/kg p.o.+saline i.p., respectively once per day for one week, while rats in vehicle group received saline p.o. and saline i.p. at the same timepoint.
# 4) After one-week treatment, portal pressure of all the rats were measured and rats were sacrificed for liver tissues.
# as §1, §2
# 3) Rats were anesthetized with inhalational isopentane through a mask. A midline abdominal incision was made, and the portal vein was cannulated with a 24-Gauge scalp vein set, connecting with a catheter filled heparin-saline, to measure PP.
# Data were presented as the means ±SEM. One-way analysis of variance (ANOVA) and student's t-tests were performed to compare data between two groups, and a P value of less than 0.05 was considered statistically significant.
smiles,measurement,setting,value
"NCCc1c[nH]c2ccc(O)cc12 [5-HT, 5-hydroxytryptamine]",Effect of agonist on contractile tension of isolated portal vein,isolated portal veins,concentration-dependent contraction
CCCN(CCC)C1CCc2cccc(O)c2C1 (stereo not shown) [8-OH-DPAT],Effect on portal pressure,[1]; 8-OH-DPAT 1 mg/kg i.p. once per day,increased; also recorded: significantly increase
same,Portal pressure,"[1]; 8-OH-DPAT 1 mg/kg i.p. once per day for one week, means ±SEM",11.66 ± 1.89 cmH2O
same,Effect of agonist on contractile tension of isolated portal vein,isolated portal veins,considerably increased the contractile force of iPVs in a concentration-dependent manner
CCN(CCCc1ccccc1)CCCc1ccccc1 [Alverine],Effect on portal pressure,[2],significantly decrease
same,Portal pressure,[2],6.94 ± 0.98 cmH2O
same,Effect on portal pressure compared with carvedilol,[2],not significantly different
same,Change of portal pressure vs. Vehicle,[2],"(−41.44%*, P = 0.0065)"
same,Effect on portal pressure,[3],significantly decreased
same,Portal pressure,[3],12.98 ± 1.74 cmH2O
same,Effect on portal pressure compared with carvedilol,[3],not significantly different
same,Change of portal pressure vs. Vehicle,[3],"(−38.39%^#, P < 0.0001)"
COc1ccccc1OCCNCC(O)COc1cccc2[nH]c3ccccc3c12 (stereo not shown) [Carvedilol],Portal pressure,[2],7.99 ± 1.37 cmH2O
same,Change of portal pressure vs. Vehicle,[2],"(−32.58%^#, P = 0.0200)"
same,Portal pressure,[3],14.01 ± 4.14 cmH2O
same,Change of portal pressure vs. Vehicle,[3],"(−33.54%^#, P = 0.0025)"
Cn1c(=O)cnn(CCCCN2CCN(c3ncccn3)CC2)c1=O [F11440],Effect of agonist on contractile tension of isolated portal vein,isolated portal veins,considerably increased the contractile force of iPVs in a concentration-dependent manner
NC(=O)c1ccc(F)c2c1C[C@@H](N(C1CCC1)C1CCC1)CO2 [NAD 299],Effect of antagonist on 5-HT induced contraction of isolated portal vein,isolated portal veins,abrogated
same,Effect of antagonist on 8-OH-DPAT induced contraction of isolated portal vein,isolated portal veins,almost completely inhibited
same,Effect of antagonist on F11440 induced contraction of isolated portal vein,isolated portal veins,almost completely inhibited
COc1ccccc1N1CCN(CCN(C(=O)C2CCCCC2)c2ccccn2)CC1 [WAY 100635],Effect on portal pressure,[2],significantly decrease
same,Portal pressure,[2],7.36 ± 2.14 cmH2O
same,Effect on portal pressure compared with carvedilol,[2],not significantly different
same,Change of portal pressure vs. Vehicle,[2],"(−37.88%^#, P = 0.0125)"
same,Effect on portal pressure,[3],significantly decreased
same,Portal pressure,[3],13.27 ± 3.00 cmH2O
same,Effect on portal pressure compared with carvedilol,[3],not significantly different
same,Change of portal pressure vs. Vehicle,[3],"(−37.04%^#, P = 0.0001)"
same,Effect of antagonist on 5-HT induced contraction of isolated portal vein,isolated portal veins,abrogated
same,Effect of antagonist on 8-OH-DPAT induced contraction of isolated portal vein,isolated portal veins,almost completely inhibited
same,Effect of antagonist on F11440 induced contraction of isolated portal vein,isolated portal veins,almost completely inhibited
